Data from US11179424B2, “Hyaluronic acid production promoting agent” (Pharma Foods International Co., Ltd., priority 2015, dated 2021).

What was measured:
[1] = test system: mouse chondrogenic cell line ATDC5; test: Cartilage matrix production by chondrogenic cells, Alcian blue (Test Example 6); assay type: cell-based; details: 500 μM, insulin 0.1 μg/mL, 14 days, FIG. 19
Procedure: The mouse chondrogenic cell line ATDC5 (RIKEN BRC No. RCB0565) was cultured until subconfluence at 37° C. in an atmosphere of 5 vol % CO2 and 95 vol % air in DMEM/F-12 medium supplemented with 5% (w/w) FBS, 1% (w/w) penicillin-streptomycin solution, 5 μg/mL transferrin, and 3×10^−8M sodium selenite. The cells were collected by trypsin treatment. The collected cells were suspended in fresh DMEM/F-12 medium with the same supplements as above to give a cell suspension (50×10^4 cells/mL). The cell suspension was spot-seeded at a volume of 20 μL in each well of a 24-well plate, and the cells were precultured at 37° C. in an atmosphere of 5 vol % CO2 and 95 vol % air for 3 hours. The medium in each well was replaced with fresh DMEM/F-12 medium containing the same supplements as above and the Phe-Hyp dipeptide (at a final concentration of 500 μM) and insulin (at a final concentration of 0.1 μg/mL), and the cells were cultured for 14 days. The cartilage matrix produced by the chondrogenic cells was stained with Alcian blue staining solution, the stained cartilage matrix was quantified with Image J (National Institutes of Health), and the results were evaluated. The amount of the cartilage matrix produced by the chondrogenic cells in the sample addition group was expressed in terms of a relative value, with the amount of the cartilage matrix in the no sample group taken as 100.

SOX9 mRNA in ATDC5 = test: Cartilage differentiation-related gene expression in chondrogenic cells: SOX9 (Test Example 7); assay type: cell-based, mouse; details: 500 μM, insulin 0.1 μg/mL, 3 days, normalized to GAPDH, FIG. 20
Procedure: (§1) The mouse chondrogenic cell line ATDC5 (RIKEN BRC No. RCB0565) was cultured until subconfluence at 37° C. in an atmosphere of 5 vol % CO2 and 95 vol % air in DMEM/F-12 medium supplemented with 5% (w/w) FBS, 1% (w/w) penicillin-streptomycin solution, 5 μg/mL transferrin, and 3×10^−8 M sodium selenite. The cells were collected by trypsin treatment. The collected cells were suspended in fresh DMEM/F-12 medium with the same supplements as above to give a cell suspension (10×10^4 cells/mL). The cell suspension was seeded at a volume of 500 μL in each well of a 24-well plate, and the cells were precultured at 37° C. in an atmosphere of 5 vol % CO2 and 95 vol % air for 2 days. The medium in each well was replaced with fresh DMEM/F-12 medium containing the same supplements as above and the Phe-Hyp dipeptide (at a final concentration of 500 μM) and insulin (at a final concentration of 0.1 μg/mL), and the cells were cultured for 3 days. As a positive control, 10 μg/mL insulin was used. At end of culture, total RNA extraction and cDNA synthesis were performed, the relative mRNA expression levels of cartilage differentiation-related genes were quantified by real-time PCR and were normalized to the GAPDH mRNA expression level, and the results were evaluated. […]

Acan mRNA in ATDC5 = test: Cartilage differentiation-related gene expression in chondrogenic cells: Acan (Test Example 7); assay type: cell-based, mouse; details: 500 μM, insulin 0.1 μg/mL, 3 days, normalized to GAPDH, FIG. 21
Procedure: as §1

has2 mRNA in ATDC5 = test: Cartilage differentiation-related gene expression in chondrogenic cells: has2 (Test Example 7); assay type: cell-based, mouse; details: 500 μM, insulin 0.1 μg/mL, 3 days, normalized to GAPDH, FIG. 23
Procedure: as §1

Col X mRNA in ATDC5 = test: Cartilage differentiation-related gene expression in chondrogenic cells: Col X (Test Example 7); assay type: cell-based, mouse; details: 500 μM, insulin 0.1 μg/mL, 3 days, normalized to GAPDH, FIG. 22
Procedure: as §1

[2] = test system: ex vivo mouse knee joints; test: Ex vivo hyaluronic acid production in knee joints of mice (Test Example 8); details: 1 mg/mL, one day incubation, ELISA, FIG. 24
Procedure: DMEM/F-12 medium supplemented with 1 mg/mL Phe-Hyp dipeptide, 5% (w/w) FBS, 1% (w/w) penicillin-streptomycin solution, 5 μg/mL transferrin, and 3×10^−8 M sodium selenite was added to each well of a 24-well plate at a volume of 1 mL per well. The femur and tibia were harvested from the right and left hind legs of ddY mice (female, retired). The synovial membrane was incised to expose the cartilage, and the bones were placed in each well so that only the joint was immersed in the medium. The bones were incubated at 37° C. in an atmosphere of 5 vol % CO2 and 95 vol % air for one day. At end of incubation, the supernatants were recovered and centrifuged at 1500×g at 4° C. for 30 minutes. The supernatants were recovered, the amount of hyaluronic acid was measured by ELISA and the results were evaluated. The amount of the hyaluronic acid in the sample addition group was expressed in terms of a relative value, with the amount of hyaluronic acid in the no sample group taken as 100.

N[C@@H](Cc1ccccc1)C(=O)N1CC(O)C[C@H]1C(=O)O (stereo partly drawn) [Phe-Hyp dipeptide, phenylalanyl-4-hydroxyproline]
cartilage matrix production by chondrogenic cells (Alcian blue) [1]: promoted cartilage matrix production
SOX9 mRNA expression level (SOX9 mRNA in ATDC5): enhanced the expression
Acan mRNA expression level (Acan mRNA in ATDC5): enhanced the expression
has2 mRNA expression level (has2 mRNA in ATDC5): enhanced the expression
Col X mRNA expression level (Col X mRNA in ATDC5): enhanced the expression
amount of hyaluronic acid produced in ex vivo mouse knee joints [2]: promoted ex vivo hyaluronic acid production
